Values quoted from earlier work in patent US20250268832A1, “Pretomanid Compositions” (The Global Alliance for TB Drug Development, Inc., priority 2019, published 2025).

Columns and labels:
[1] = poorly soluble
[2] = system: drug-resistant clinical isolates; conditions: background statement
[3] = system: Mycobacterium tuberculosis; conditions: background statement

## O=[N+]([O-])c1cn2c(n1)OC[C@@H](OCc1ccc(OC(F)(F)F)cc1)C2 [Pretomanid, (65)-2-nitro-6-{[4-(trifluoromethoxy)benzyl]oxy}-6,7,-dihydro-5H-imidazol[2.1b][1.3]oxazine]
[1]
  Biopharmaceutics Classification System (BCS) class: Class II/IV
[2]
  activity in vitro against drug-resistant clinical isolates: activity in vitro against all tested drug-resistant clinical isolates
[3]
  activity in mice: potent bactericidal and sterilizing agent
